By inhibition is commonly meant the drop in the measured response relative to a control, in per cent.

Read-outs that look alike come from different tables or passages of the source.

The values that follow come from US9492471B2, “Methods of treating a disease or disorder associated with Bruton'S Tyrosine Kinase” (Celgene Avilomics Research, Inc., priority 2013, dated 2016).

Common to all, as to assay: HotSpot kinase profiling
Type in all cases: biochemical

One assay has as its target T1, AKT1 (Homo sapiens, UniProt P31749).
T1 construct: purchased Reaction Biology Corp
In a few lines: (§1)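 Radiometric kinase assay with P81 filter capture; each kinase was added to fresh substrate plus cofactors in reaction buffer and incubated 2 h at room temperature. Unreacted phosphate was washed off with 0.1% phosphoric acid before detection; percent inhibition is relative to DMSO control, averaged over replicates.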

The next assay concerns the target T2, DCAMKL1 (Homo sapiens, UniProt O15075).
T2 construct: purchased Reaction Biology Corp
T2 sequence (O15075 1-740): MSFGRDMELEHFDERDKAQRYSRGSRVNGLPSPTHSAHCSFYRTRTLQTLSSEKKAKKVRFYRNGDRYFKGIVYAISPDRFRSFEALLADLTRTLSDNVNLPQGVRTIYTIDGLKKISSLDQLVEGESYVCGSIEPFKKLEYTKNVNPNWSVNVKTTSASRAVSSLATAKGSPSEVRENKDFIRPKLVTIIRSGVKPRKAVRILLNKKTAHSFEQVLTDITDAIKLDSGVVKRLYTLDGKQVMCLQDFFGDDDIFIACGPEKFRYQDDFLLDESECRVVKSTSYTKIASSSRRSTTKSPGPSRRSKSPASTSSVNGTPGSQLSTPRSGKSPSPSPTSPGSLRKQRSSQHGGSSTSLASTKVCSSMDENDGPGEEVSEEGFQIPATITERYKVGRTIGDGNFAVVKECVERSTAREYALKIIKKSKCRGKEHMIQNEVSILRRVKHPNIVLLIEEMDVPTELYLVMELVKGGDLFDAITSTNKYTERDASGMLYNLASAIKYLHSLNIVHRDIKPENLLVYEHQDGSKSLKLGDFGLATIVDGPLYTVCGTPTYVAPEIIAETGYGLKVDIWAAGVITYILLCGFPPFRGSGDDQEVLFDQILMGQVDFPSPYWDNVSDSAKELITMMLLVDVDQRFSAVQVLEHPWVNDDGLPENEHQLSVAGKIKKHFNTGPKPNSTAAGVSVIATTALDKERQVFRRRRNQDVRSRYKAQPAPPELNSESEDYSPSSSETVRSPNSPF
In a few lines:
as §1

The next assay addresses T3, FMS (Homo sapiens, UniProt P07333).
T3 construct: purchased Reaction Biology Corp
In a few lines:
as §1

For a further assay, the target named is T4, P38g (Homo sapiens, UniProt P53778).
T4 construct: purchased Reaction Biology Corp
T4 sequence (P53778 1-367): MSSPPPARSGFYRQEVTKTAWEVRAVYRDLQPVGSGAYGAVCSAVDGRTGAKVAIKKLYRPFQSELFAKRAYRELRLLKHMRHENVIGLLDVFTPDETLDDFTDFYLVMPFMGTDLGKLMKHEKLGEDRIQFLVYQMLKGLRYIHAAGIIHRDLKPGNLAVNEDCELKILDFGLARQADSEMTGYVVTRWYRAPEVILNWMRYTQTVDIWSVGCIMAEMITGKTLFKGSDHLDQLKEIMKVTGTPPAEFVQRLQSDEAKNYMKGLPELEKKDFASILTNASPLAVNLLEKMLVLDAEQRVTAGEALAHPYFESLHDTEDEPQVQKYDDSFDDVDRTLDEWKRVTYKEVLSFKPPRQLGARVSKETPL
In a few lines:
as §1

The target in the next assay is T5, PAK4 (Homo sapiens, UniProt O96013).
T5 construct: purchased Reaction Biology Corp
In a few lines:
as §1

The mark [1] stands for this setting: read-out: % Enzyme Activity (relative to DMSO controls) Run 1.
[2] abbreviates: read-out: % Enzyme Activity (relative to DMSO controls) Run 2.

T5 sequence (O96013 whole entry): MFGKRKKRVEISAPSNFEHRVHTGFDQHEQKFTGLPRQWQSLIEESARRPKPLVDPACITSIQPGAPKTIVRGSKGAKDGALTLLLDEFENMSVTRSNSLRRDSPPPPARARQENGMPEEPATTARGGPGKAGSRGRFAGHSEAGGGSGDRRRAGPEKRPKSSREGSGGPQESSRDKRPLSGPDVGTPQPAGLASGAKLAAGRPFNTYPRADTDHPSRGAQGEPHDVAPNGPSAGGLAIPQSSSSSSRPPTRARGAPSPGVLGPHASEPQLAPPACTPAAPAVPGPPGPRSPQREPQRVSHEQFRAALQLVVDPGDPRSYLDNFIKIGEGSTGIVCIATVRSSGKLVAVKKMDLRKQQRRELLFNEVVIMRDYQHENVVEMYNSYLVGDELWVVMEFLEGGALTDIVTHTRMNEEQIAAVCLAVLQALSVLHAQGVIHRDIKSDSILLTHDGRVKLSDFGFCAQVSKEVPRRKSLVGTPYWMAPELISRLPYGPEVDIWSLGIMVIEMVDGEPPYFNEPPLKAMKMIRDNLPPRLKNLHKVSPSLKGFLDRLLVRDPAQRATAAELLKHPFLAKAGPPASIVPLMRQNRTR
T3 sequence (P07333 20-972): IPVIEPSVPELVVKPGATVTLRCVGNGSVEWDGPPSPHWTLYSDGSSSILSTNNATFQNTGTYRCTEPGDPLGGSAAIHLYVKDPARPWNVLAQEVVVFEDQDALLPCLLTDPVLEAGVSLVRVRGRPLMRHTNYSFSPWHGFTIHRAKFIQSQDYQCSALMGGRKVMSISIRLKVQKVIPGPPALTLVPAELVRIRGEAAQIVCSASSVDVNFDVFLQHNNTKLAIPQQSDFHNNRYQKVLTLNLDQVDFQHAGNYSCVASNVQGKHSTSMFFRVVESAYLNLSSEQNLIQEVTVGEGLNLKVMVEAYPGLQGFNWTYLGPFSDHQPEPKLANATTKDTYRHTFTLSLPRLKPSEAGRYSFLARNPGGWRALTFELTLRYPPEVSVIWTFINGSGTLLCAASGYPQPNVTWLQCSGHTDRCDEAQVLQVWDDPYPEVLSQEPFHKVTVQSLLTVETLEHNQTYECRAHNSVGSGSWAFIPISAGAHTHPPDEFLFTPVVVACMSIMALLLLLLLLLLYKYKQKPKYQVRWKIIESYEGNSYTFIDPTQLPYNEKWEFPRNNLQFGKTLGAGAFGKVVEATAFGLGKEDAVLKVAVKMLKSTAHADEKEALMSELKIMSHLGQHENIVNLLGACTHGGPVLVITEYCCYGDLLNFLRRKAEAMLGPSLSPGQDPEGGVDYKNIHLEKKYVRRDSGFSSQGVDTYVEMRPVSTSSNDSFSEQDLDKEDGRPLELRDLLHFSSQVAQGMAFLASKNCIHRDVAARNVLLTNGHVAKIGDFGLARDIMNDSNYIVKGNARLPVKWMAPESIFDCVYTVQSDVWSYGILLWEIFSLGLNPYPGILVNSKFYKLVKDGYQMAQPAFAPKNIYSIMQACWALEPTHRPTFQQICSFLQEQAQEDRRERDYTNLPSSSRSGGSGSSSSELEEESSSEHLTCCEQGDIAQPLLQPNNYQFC
T1 sequence (P31749 whole entry): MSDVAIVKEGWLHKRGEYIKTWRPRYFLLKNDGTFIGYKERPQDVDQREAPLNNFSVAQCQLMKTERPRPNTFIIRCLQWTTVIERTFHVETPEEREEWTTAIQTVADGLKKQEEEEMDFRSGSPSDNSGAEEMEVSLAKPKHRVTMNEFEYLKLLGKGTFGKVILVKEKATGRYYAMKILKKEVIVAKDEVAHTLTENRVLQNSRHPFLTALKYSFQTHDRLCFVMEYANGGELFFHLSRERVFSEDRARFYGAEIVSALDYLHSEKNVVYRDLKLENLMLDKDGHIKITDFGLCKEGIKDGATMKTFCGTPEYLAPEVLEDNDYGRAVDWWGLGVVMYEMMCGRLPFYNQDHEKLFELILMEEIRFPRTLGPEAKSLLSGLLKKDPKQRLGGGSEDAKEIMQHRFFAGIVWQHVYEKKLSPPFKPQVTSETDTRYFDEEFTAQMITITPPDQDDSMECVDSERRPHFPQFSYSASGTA

As to `C=CC(=O)Nc1cccc(Nc2nc(Nc3ccc(OCCOC)c(F)c3)ncc2F)c1` [Compound 2], the inhibition at 3 µM against AKT1 was 5.87%; against DCAMKL1 it was 2.02%; on FMS, 34.1%; against P38g it was -5.53%; at PAK4, 2.45%. Moreover, the remaining activity at 3 µM is 95.1% at AKT1 (setting [1]); 93.1% on AKT1 (setting [2]); 98.4% on DCAMKL1 (setting [1]); 97.5% at DCAMKL1 (setting [2]); 64.5% at FMS (setting [1]); 67.3% at FMS (setting [2]). In addition, the remaining activity at 3 µM on P38g (setting [1]) turned out to be 105%; at P38g (setting [2]) it was 106%; on PAK4 (setting [1]), 98.7%; at PAK4 (setting [2]), 96.4%.
